Values after ≈ are worked out from the molar mass of the structure shown. Where a SMILES comes first, the peptide text is derived from it. Bridges are numbered along the chain shown (N, C = ends). [ ]: non-standard residue; d: D form. S5 = C=CCCC[C@](C)(N)C(=O)O
How the values were obtained:
Test in all cases: microbe, parasite or virus in culture
C. albicans 904 = conditions: for Minimum inhibitory concentration (MIC): 904, 48 h
Procedure: (§1) The in vitro antifungal activities of the target peptides were evaluated according to protocols from the CLSI. The broth microdilution method was used to determine the minimum inhibitory concentration (MIC) of the target peptides in 96-well plates. Fluconazole was used as a reference drug.
(§2) Clinical isolates of C. albicans SC5314, 901, 904, C. tropicalis ATCC20026 and clinical isolate 895, C. glabrata ATCC1182 and clinical isolate 896, C. krusei ATCC2340, and C. parapsilosis ATCC22010 are from the collection library in the Drug Discovery and Development Center, Naval Medical University, Shanghai, China. C. auris clinical isolates are provided by Linqi Wang (Institute of Microbiology, Chinese Academy of Sciences) and Changbin Chen (Institut Pasteur of Shanghai, Chinese Academy of Sciences). All strains were cultured in YPD (1% yeast extract, 2% peptone, and 2% glucose) liquid medium overnight at 30 °C with shaking at 220 rpm.
(§3) The MICs of chemicals against all strains were determined by the micro broth dilution method according to the Clinical and Laboratory Standards Institute (Wayne PA, Reference Method for Broth Dilution Antifungal Susceptibility Testing of yeasts, approved Standard M27-A3, 3 rd ed; Clinical and Laboratory Standards Institute (CLSI): USA, 2008). The initial concentration of fungal suspension in RPMI 1640 medium was 3–5 × 10^3 colonies forming unit (CFU)/mL, which was added to 96-well plates. Peptides were prepared in dimethyl sulfoxide (DMSO) with an initial stored concentration of 6.4 mg/mL. Serial dilutions were made based on the CLSI M27 guide to obtaining the final concentrations ranging from 0.125 to 64 μg/mL for fluconazole and 0.25 to 128 μg/mL for peptides […]. The plates were incubated at 30 °C for 48 h. Optical density was measured at 630 nm, and background optical densities were subtracted from that of each well. The definition of MIC is the lowest concentration at which 80% of tested strains cannot grow.

C. albicans 901 = conditions: for Minimum inhibitory concentration (MIC): 901, 48 h
Procedure: as §1, §2, §3

C. auris 919 = conditions: for Minimum inhibitory concentration (MIC): 919, 48 h
Procedure: as §1, §2, §3

[1] = system: C. parapsilosis ATCC 22010; conditions: for Minimum inhibitory concentration (MIC): ATCC 22010, 48 h
Procedure: as §1, §2, §3

C. auris 918 = conditions: for Minimum inhibitory concentration (MIC): 918, 48 h
Procedure: as §1, §2, §3

C. glabrata ATCC 1182 = conditions: for Minimum inhibitory concentration (MIC): ATCC 1182, 48 h
Procedure: as §1, §2, §3

C. tropicalis ATCC 20026 = conditions: for Minimum inhibitory concentration (MIC): ATCC 20026, 48 h
Procedure: as §1, §2, §3

C. glabrata 896 = conditions: for Minimum inhibitory concentration (MIC): 896, 48 h
Procedure: as §1, §2, §3

C. albicans SC5314 = conditions: SC5314, 48 h
Procedure: as §1, §2, §3

C. krusei ATCC 2340 = conditions: for Minimum inhibitory concentration (MIC): ATCC 2340, 48 h
Procedure: as §1, §2, §3

C. tropicalis 895 = conditions: for Minimum inhibitory concentration (MIC): 895, 48 h
Procedure: as §1, §2, §3

[2] = Candidozyma auris, 48 h, read-out: Minimum inhibitory concentration (MIC)

SMILES	Minimum inhibitory concentration (MIC) (C. albicans 904)	Minimum inhibitory concentration (MIC) (C. albicans 901)	Minimum inhibitory concentration (MIC) (C. auris 919)	Minimum inhibitory concentration (MIC) [1]	Minimum inhibitory concentration (MIC) (C. auris 918)	Minimum inhibitory concentration (MIC) (C. glabrata ATCC 1182)	Minimum inhibitory concentration (MIC) (C. tropicalis ATCC 20026)	Minimum inhibitory concentration (MIC) (C. glabrata 896)	Minimum inhibitory concentration (MIC) (C. albicans SC5314)	Minimum inhibitory concentration (MIC) (C. krusei ATCC 2340)	Minimum inhibitory concentration (MIC) (C. tropicalis 895)	further results
OC(Cn1cncn1)(Cn1cncn1)c1ccc(F)cc1F [Fluconazole, reference compound]												MIC (C. albicans 904; Candida albicans, 904, 48 h, read-out: Minimum inhibitory concentration (MIC)): > 64 µg/mL; MIC (C. albicans 901; Candida albicans, 901, 48 h, read-out: Minimum inhibitory concentration (MIC)): > 64 µg/mL; MIC (C. auris 919; [2]): > 128 µg/mL; MIC ([1]; Lodderomyces parapsilosis, ATCC22010, 48 h, read-out: Minimum inhibitory concentration (MIC)): 1 µg/mL (≈ 3.27 µM); MIC (C. auris 918; [2]): > 128 µg/mL; MIC (C. glabrata ATCC 1182; Nakaseomyces glabratus, ATCC1182, 48 h, read-out: Minimum inhibitory concentration (MIC)): 2 µg/mL (≈ 6.53 µM); MIC (C. tropicalis ATCC 20026; Candida tropicalis, ATCC20026, 48 h, read-out: Minimum inhibitory concentration (MIC)): 1 µg/mL (≈ 3.27 µM); MIC (C. glabrata 896; Nakaseomyces glabratus, 48 h, read-out: Minimum inhibitory concentration (MIC)): > 128 µg/mL; MIC (C. albicans SC5314; Candida albicans, read-out: Minimum inhibitory concentration (MIC)): 0.5 µg/mL (≈ 1.63 µM); MIC (C. krusei ATCC 2340; Pichia kudriavzevii, ATCC2340, 48 h, read-out: Minimum inhibitory concentration (MIC)): 64 µg/mL (≈ 209 µM); MIC (C. tropicalis 895; Candida tropicalis, 895, 48 h, read-out: Minimum inhibitory concentration (MIC)): > 128 µg/mL
CC[C@H](C)[C@H](NC(=O)[C@H](CCCCN)NC(=O)[C@H](CCCCN)NC(=O)[C@@H](NC(=O)[C@]1(C)CCCC=CCCC[C@](C)(NC(C)=O)C(=O)N[C@@H](CC(C)C)C(=O)N[C@@H](Cc2ccccc2)C(=O)N[C@@H](CC(=O)O)C(=O)N1)[C@@H](C)CC)C(=O)N[C@@H](C)C(=O)N[C@@H](CCC(=O)O)C(=O)N[C@@H](CO)C(=O)N[C@@H](Cc1ccccc1)C(N)=O [Sau-1] (Ac-[S5]LFD[S5]IKKIAESF-NH2; staple 1-5)	>128 µg/mL	32 µg/mL (≈ 20 µM)	>128 µg/mL	128 µg/mL (≈ 79.9 µM)	>128 µg/mL	>128 µg/mL	>128 µg/mL	>128 µg/mL	>64 µg/mL	>128 µg/mL	>128 µg/mL	
CC[C@H](C)[C@H](NC(=O)[C@H](CCCCN)NC(=O)[C@H](CCCCN)NC(=O)[C@]1(C)CCCC=CCCC[C@](C)(NC(=O)CNC(C)=O)C(=O)N[C@@H](Cc2ccccc2)C(=O)N[C@@H](CC(=O)O)C(=O)N[C@@H]([C@@H](C)CC)C(=O)N1)C(=O)N[C@@H](C)C(=O)N[C@@H](CCC(=O)O)C(=O)N[C@@H](CO)C(=O)N[C@@H](Cc1ccccc1)C(N)=O [Sau-2] (Ac-G[S5]FDI[S5]KKIAESF-NH2; staple 2-6)	>128 µg/mL	>128 µg/mL	>128 µg/mL	>128 µg/mL	>128 µg/mL	>128 µg/mL	>128 µg/mL	128 µg/mL (≈ 82.8 µM)	>64 µg/mL	>128 µg/mL	16 µg/mL (≈ 10.4 µM)	
CC[C@H](C)[C@H](NC(=O)[C@H](CCCCN)NC(=O)[C@]1(C)CCCC=CCCC[C@](C)(NC(=O)[C@H](CC(C)C)NC(=O)CNC(C)=O)C(=O)N[C@@H](CC(=O)O)C(=O)N[C@@H]([C@@H](C)CC)C(=O)N[C@@H]([C@@H](C)CC)C(=O)N1)C(=O)N[C@@H](C)C(=O)N[C@@H](CCC(=O)O)C(=O)N[C@@H](CO)C(=O)N[C@@H](Cc1ccccc1)C(N)=O [Sau-3] (Ac-GL[S5]DII[S5]KIAESF-NH2; staple 3-7)	>128 µg/mL	>128 µg/mL	>128 µg/mL	>128 µg/mL	>128 µg/mL	>128 µg/mL	>128 µg/mL	>128 µg/mL	>64 µg/mL	>128 µg/mL	>128 µg/mL	
CC[C@H](C)[C@@H]1NC(=O)[C@H]([C@@H](C)CC)NC(=O)[C@@](C)(NC(=O)[C@H](Cc2ccccc2)NC(=O)[C@H](CC(C)C)NC(=O)CNC(C)=O)CCCC=CCCC[C@@](C)(C(=O)N[C@H](C(=O)N[C@@H](C)C(=O)N[C@@H](CCC(=O)O)C(=O)N[C@@H](CO)C(=O)N[C@@H](Cc2ccccc2)C(N)=O)[C@@H](C)CC)NC(=O)[C@H](CCCCN)NC1=O [Sau-4] (Ac-GLF[S5]IIK[S5]IAESF-NH2; staple 4-8)	>128 µg/mL	>128 µg/mL	>128 µg/mL	>128 µg/mL	>128 µg/mL	>128 µg/mL	>128 µg/mL	>128 µg/mL	>64 µg/mL	>128 µg/mL	>128 µg/mL	
CC[C@H](C)[C@H](NC(=O)[C@H](CC(=O)O)NC(=O)[C@H](Cc1ccccc1)NC(=O)[C@H](CC(C)C)NC(=O)CNC(C)=O)C(=O)N[C@@]1(C)CCCC=CCCC[C@@](C)(C(=O)N[C@@H](CCC(=O)O)C(=O)N[C@@H](CO)C(=O)N[C@@H](Cc2ccccc2)C(N)=O)NC(=O)[C@H]([C@@H](C)CC)NC(=O)[C@H](CCCCN)NC(=O)[C@H](CCCCN)NC1=O [Sau-6] (Ac-GLFDI[S5]KKI[S5]ESF-NH2; staple 6-10)	>128 µg/mL	>128 µg/mL	>128 µg/mL	>128 µg/mL	>128 µg/mL	>128 µg/mL	>128 µg/mL	>128 µg/mL	>64 µg/mL	>128 µg/mL	>128 µg/mL	
CC[C@H](C)[C@@H]1NC(=O)[C@H](CCCCN)NC(=O)[C@@](C)(NC(=O)[C@@H](NC(=O)[C@@H](NC(=O)[C@H](CC(=O)O)NC(=O)[C@H](Cc2ccccc2)NC(=O)[C@H](CC(C)C)NC(=O)CNC(C)=O)[C@@H](C)CC)[C@@H](C)CC)CCCC=CCCC[C@@](C)(C(=O)N[C@@H](CO)C(=O)N[C@@H](Cc2ccccc2)C(N)=O)NC(=O)[C@H](C)NC1=O [Sau-7] (Ac-GLFDII[S5]KIA[S5]SF-NH2; staple 7-11)	>128 µg/mL	>128 µg/mL	>128 µg/mL	>128 µg/mL	>128 µg/mL	>128 µg/mL	>128 µg/mL	>128 µg/mL	>64 µg/mL	>128 µg/mL	>128 µg/mL	
CC[C@H](C)[C@H](NC(=O)[C@H](CC(=O)O)NC(=O)[C@H](Cc1ccccc1)NC(=O)[C@H](CC(C)C)NC(=O)CNC(C)=O)C(=O)N[C@H](C(=O)N[C@@H](CCCCN)C(=O)N[C@@]1(C)CCCC=CCCC[C@@](C)(C(=O)N[C@@H](Cc2ccccc2)C(N)=O)NC(=O)[C@H](CCC(=O)O)NC(=O)[C@H](C)NC(=O)[C@H]([C@@H](C)CC)NC1=O)[C@@H](C)CC [Sau-8] (Ac-GLFDIIK[S5]IAE[S5]F-NH2; staple 8-12)	>128 µg/mL	>128 µg/mL	>128 µg/mL	>128 µg/mL	>128 µg/mL	>128 µg/mL	>128 µg/mL	>128 µg/mL	>64 µg/mL	>128 µg/mL	>128 µg/mL	

Reference: PMC8389037, “Design, Synthesis and Antifungal Activity of Stapled Aurein1.2 Peptides” (Antibiotics, 2021)
